Patent US11026999B2, “Insulin glargine/lixisenatide fixed ratio formulation” (SANOFI-AVENTIS DEUTSCHLAND GMBH, priority 2013, dated 2021)

What was measured:
type 2 diabetic patients [1] = experiment: 2-hour plasma glucose excursion during standardized meal test (Example 1); type: in vivo, human; conditions: mITT population; for 2-hour plasma glucose excursion change from baseline to Week 24 (LOCF), LS Mean (SE): ANCOVA
Source text: The diabetes type 2 patient may have a glucose excursion (in particular a 2-hour postprandial glucose excursion of at least 2 mmol/L, at least 3 mmol/L, at least 4 mmol/L, at least 5 mmol/L, at least 5.5 mmol/L, at least 6 mmol/L, at least 6.5 mmol/L, or at least 7 mmol/L at the onset of the treatment with the composition of the present invention. In the present invention, the glucose excursion is in particular the difference of the 2-hour postprandial plasma glucose concentration and the plasma glucose concentration 30 minutes prior to a meal test.
(§1) Criteria for Evaluation: • Efficacy: • Primary Endpoint: • Change in HbA1c from baseline to Week 24 • Secondary Endpoints: • Change in 2-hour PPG during meal test from baseline to Week 24 • Change in 2-hour plasma glucose excursion during meal test from baseline to Week 24 • Percentage of patients reaching HbA1c ≤6.5% or <7% at Week 24 • Change in 7-point SMPG profiles from baseline to Week 24 (each time point and mean daily value) • Change in body weight from baseline to Week 24, • Average daily Insulin glargine dose at Week 24 • Change in FPG from baseline to Week 24 • Percentage of patients requiring rescue therapy during the 24-week open-label treatment period • Change in 30-minute and 1-hour PPG and plasma glucose excursion during meal test from baseline to week 24 • Percentage of patients reaching HbA1c <7% at week 24 with no documented symptomatic hypoglycemia during the 24-week open label treatment period • Percentage of patients reaching HbA1c <7% with no weight gain at week 24
(§2) All continuous secondary efficacy endpoints were analyzed using a similar ANCOVA model with treatment, randomization strata of screening HbA1c (<8%, ≥8%), randomization strata of screening BMI (<30 kg/m^2, ≥30 kg/m^2) and country as fixed effects and using the baseline value of the corresponding parameter as a covariate. Insulin glargine dose was not included in the ANCOVA model as a covariate since patients enrolled were insulin-naïve.

Body weight (Example 1) = type: in vivo, human; conditions: for Body weight change from baseline to Week 24 (LOCF), LS Mean (SE): ANCOVA
Source text: as §1, §2

type 2 diabetic patients [2] = experiment: Lipase, amylase and calcitonin monitoring (Example 1); parameters: species or system human; conditions: in vivo
Source text: Per protocol, any increase in amylase and/or lipase above twice the upper limit of normal range (ULN) or in Calcitonin ≥20 pg/mL that had been confirmed by a repeat measurement was to be monitored and documented on a specific AE form. […] No patients reported a TEAE of increased calcitonin (≥20 pg/mL).
The number of patients who had at least 1 value of lipase or amylase ULN, or at least 1 value of calcitonin ≥20 pg/ml during the on-treatment period was also summarized. One patient in the insulin glargine group had at least 1 value of amylase ≥3 ULN, and 5 patients (4 in the combination group and 1 in the insulin glargine group) had at least 1 value of lipase ≥3 ULN. One patient in the insulin glargine group had 1 value of calcitonin ≥20 pg/ml (but <50 pg/ml) with retested values within the normal range.

For “Gly(A21)-Arg(B31)-Arg(B32)-human insulin [Insulin Glargine]”, the “2-hour plasma glucose excursion at Week 24 (LOCF), Mean (SD)” value (type 2 diabetic patients [1]) was 5.33 (2.79) mmol/L, the “2-hour plasma glucose excursion at Week 24 (LOCF), Median” value (type 2 diabetic patients [1]) was 5.05 mmol/L and the “2-hour plasma glucose excursion change from baseline to Week 24 (LOCF), Mean (SD)” value (type 2 diabetic patients [1]) was −0.61 (3.03) mmol/L. The “2-hour plasma glucose excursion change from baseline to Week 24 (LOCF), Median” value (type 2 diabetic patients [1]) was -0.75 mmol/L, the “2-hour plasma glucose excursion change from baseline to Week 24 (LOCF), LS Mean (SE)” value (type 2 diabetic patients [1]) was −0.67 (0.269) mmol/L and the “2-hour plasma glucose excursion change from baseline to Week 24 (LOCF), LS Mean (SE)” value (type 2 diabetic patients [1]; listed as insulin glargine) was -0.67 mmol/L. The “Body weight at Week 24 (LOCF), Mean (SD)” value (Body weight (Example 1); mITT population) was 92.09 (16.30) kg, the “Body weight at Week 24 (LOCF), Median” value (Body weight (Example 1); mITT population) was 91.00 kg and the “Body weight change from baseline to Week 24 (LOCF), Mean (SD)” value (Body weight (Example 1); mITT population) was 0.39 (2.96) kg. For the same substance, the “Body weight change from baseline to Week 24 (LOCF), Median” value (Body weight (Example 1); mITT population) was 0.35 kg, the “Body weight change from baseline to Week 24 (LOCF), LS Mean (SE)” value (Body weight (Example 1); mITT population) was 0.48 (0.282) kg and the “Body weight change from baseline to Week 24 (LOCF), LS Mean (SE)” value (Body weight (Example 1); mITT population, listed as insulin glargine) was “+0.48 kg”. The “LS mean body weight increase from baseline to week 24” value (Body weight (Example 1); worded as increased by) was 0.48 kg, the “Patients with 1 value of calcitonin ≥20 pg/ml (but <50 pg/ml)” value (type 2 diabetic patients [2]) was “One” and the “Patients with TEAE of amylase increased (>2 ULN) reported on the specific AE form” value (type 2 diabetic patients [2]) was 1 patient. For the same substance, the “Patients with TEAE of lipase increased (>2 ULN) reported on the specific AE form” value (type 2 diabetic patients [2]) was 1 [0.6%] n (%), the “Patients with at least 1 value of amylase ≥3 ULN” value (type 2 diabetic patients [2]) was “One” and the “Patients with at least 1 value of lipase ≥3 ULN” value (type 2 diabetic patients [2]) was 1 patients.
